Values quoted from earlier work, collected in patent publication EP3155636B1, “A PROBE FOR EXTRACTION OF MOLECULES OF INTEREST FROM A SAMPLE” (JP Scientific Limited, priority 2014, dated 2015).

Settings: listed with the MS/MS parameters of 21 WADA controlled substances; source and method not stated

SMILES: CC(C)NCC(O)COc1ccc(COCCOC(C)C)cc1 (stereo not drawn) [Bisoprolol]
- Log P: 2.14

SMILES: C=C1C[C@@H]2[C@H](CC[C@]3(C)C(=O)CC[C@@H]23)[C@@]2(C)C=CC(=O)C=C12 [Exemestane]
- Log P: 3.70

SMILES: Cc1cc(SCc2sc(-c3ccc(C(F)(F)F)cc3)nc2C)ccc1OCC(=O)O [GW501516]
- Log P: 6.29

SMILES: CCN(CC)C(=O)c1cccnc1 [Nikethamide]
- Log P: 0.33

SMILES: CC(C)(C)NCC(O)c1ccc(O)c(CO)c1 (stereo not drawn) [Salbutamol]
- Log P: 0.64

SMILES: CN(C)CCOc1ccc(/C(=C(/CCCl)c2ccccc2)c2ccccc2)cc1 [Toremifene]
- Log P: 6.80
